Test system: 171881-019-R-J1-PDC complex spheroid growth, % test/control
Experiment: Anticancer human tumor 171881-019-R-J1-PDC patient-derived invasive breast carcinoma cell line growth inhibition [Asc]
Conditions: for IC50: curve of first compound; for viability, T/C: stronger effect = lower value
Procedure: Multicellular complex tumor spheroid response to apoptosis pathway targeting inhibitors Alrizomadlin, Pelcitoclax, and Dasminapant in combination with a variety of drugs and investigational agents in selected tumor cell lines
The MDM2 inhibitor alrizomadlin, the Bcl-2/Bcl-xL inhibitor pelcitoclax, and the IAPs inhibitor dasminapant were evaluated both individually and in combination with standard of care and investigational anticancer small molecules within a complex spheroid model of solid tumors. . Complex spheroids include a stromal component modeled by human endothelial cells (HUVEC) and fibroblasts modeled by human mesenchymal stem cells (MSCs). The concentration ranges selected for each drug and investigational agent were based upon clinically achievable concentrations if the clinical Cmax of the agent was known.
Compounds. The drugs and investigational agents: alrizomadlin (APG-115; NSC831270), pelcitoclax (APG-1252; NSC835773), dasminapant (APG-1387;NSC834197), TAK-243 (NSC785004), copanlisib (NSC809693), olaparib (NSC753686), talazoparib (NSC767125), cobimetinib (NSC 768068), eltanexor (KPT-8602, NSC 794443), abemaciclib (NSC 768073), sotorasib (NSC818433), adagrasib (NSC 831453), MRTX-1133 (NSC 836407), Iadademestat (ORY1001, NSC 806812), and RMC-4630 (NSC839698), were obtained from the NCI Developmental Therapeutics Program Chemical Repository. The FDA-approved anticancer drug set is available from the Developmental Therapeutics Program at https://dtp.cancer.gov/organization/dscb/obtaining/available plates.htm. […] The stock solutions were prepared in dimethyl sulfoxide (DMSO, Sigma-Aldrich, St. Louis, MO, cat. D2650) at 800-fold the tested concentration and stored at -70 degrees C prior to their use. All drugs and investigational agents were tested over a range starting from a high concentration at or near the clinical Cmax and decreasing in half-log increments. If the clinical Cmax for an agent had not been determined, the highest concentration tested was 10 microM.
The patient-derived cancer (PDC) cell lines include five colon adenocarcinomas: 186277-243-T-J2-PDC, 616215-338-R-J1-PDC, 439559-082-T-J2-PDC, 463943-066-T-J2-PDC, and 519858-162-T-J1-PDC; three pancreatic carcinomas: 323965-272-R-J2-PDC, 521955-158-R6-J3-PDC, and 521955-158-R2-J5-PDC; two uterine sarcomas: 327498-152-R-J2-PDC and 993429-296-R-J1-PDC; two rhabdomyosarcomas: 755483-174-R-J1-PDC and 772245-204-R-J1-PDC; two soft tissue sarcomas: 126254-015-R-J1-PDC and 494315-158-R-J1-PDC; two malignant fibrous histiocytomas: 317291-083-R-J1-PDC and 596521-263-R-J1-PDC; two breast carcinomas: 171881-019-R-J1-PDC and 885512-296-R-J2-PDC; and one ovarian carcinoma: 6556581-035-R-J-PDC were obtained from the NCI PDMR, (https://pdmr.cancer.gov). The established cell lines HSSY-2 synovial sarcoma (RRID:CVCL 8719), SYO-1 synovial sarcoma (RRID:CVCL_7146), MPNST malignant peripheral neural sheath tumor were obtained from the Sloan Kettering Institute. The following established cell lines were purchased from the American Type Culture Collection (ATCC, Manassas, VA), Sor the received from the NCI repository:, PANC-1 pancreatic carcinoma (CRL-1469, RRID:CVCL_0480), OVCAR-5 ovarian carcinoma (RRID:CVCL_1628), OVCAR-8 ovarian carcinoma (RRID:CVCL_1629), , MCF-7 breast carcinoma (CRL-12584, RRID:CVCL_0031), MDA-MB-231 breast carcinoma (CRL-12532, RRID:CVCL_0062), NCI-H1876 small cell lung carcinoma (CRL-5902, RRID:CVCL_1503), NCI-H510A small cell lung carcinoma (HTB-184, RRID:CVCL_1565), NCI-H1417 (CRL-5869, RRID:CVCL_1469), and NCI-H196 small cell lung carcinoma (CRL-5823, RRID:CVCL_1509). Dr. Peter Houghton (Greehey Children's Cancer Research Institute, University of Texas Health Science Center, San Antonio, TX) provided Rh-18 rhabdomyosarcoma (RRID:CVCL_1659). Pooled donor human umbilical vein endothelial cells (HUVEC, Lonza, cat. CC-2519) and human mesenchymal stem cells (hMSC, Lonza, cat. PT-2501) were purchased from Lonza (Walkersville, MD).
Cell Culture. […]

[1] = second compound 0.03 µM, first compound 0.00316 µM
[2] = second compound 0.03 µM, first compound 0.01 µM
[3] = second compound 0.03 µM, first compound 0.0316 µM
[4] = second compound 0.03 µM, first compound 0.1 µM
[5] = second compound 0.0949 µM, first compound 0.00316 µM
[6] = second compound 0.0949 µM, first compound 0.01 µM
[7] = second compound 0.0949 µM, first compound 0.0316 µM
[8] = second compound 0.0949 µM, first compound 0.1 µM
[9] = second compound 0.3 µM, first compound 0.00316 µM
[10] = second compound 0.3 µM, first compound 0.01 µM
[11] = second compound 0.3 µM, first compound 0.0316 µM
[12] = second compound 0.3 µM, first compound 0.1 µM
[13] = second compound 0.949 µM, first compound 0.00316 µM
[14] = second compound 0.949 µM, first compound 0.01 µM
[15] = second compound 0.949 µM, first compound 0.0316 µM
[16] = second compound 0.949 µM, first compound 0.1 µM
[17] = second compound 3 µM, first compound 0.00316 µM
[18] = second compound 3 µM, first compound 0.01 µM
[19] = second compound 3 µM, first compound 0.0316 µM
[20] = second compound 3 µM, first compound 0.1 µM
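Throughout, for viability, T/C: spheroids exposed to compounds for 7 days.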

In the case of `CCN1CCN(Cc2ccc(Nc3ncc(F)c(-c4cc(F)c5nc(C)n(C(C)C)c5c4)n3)nc2)CC1` + CCN1C(C(=O)NC23CCC(C(=O)O)(CC2)CC3)C(c2cccc(Cl)c2F)C2(C(=O)Nc3cc(Cl)ccc32)C12CCCCC2, the IC50 (second compound 0.03 µM) is reported as > 1000 nM, the IC50 (second compound 0.0949 µM) is reported as > 1000 nM and the IC50 (second compound 0.3 µM) is reported as > 1000 nM. For the same compound, the IC50 (second compound 0.949 µM) was > 1000 nM, the IC50 (second compound 3 µM) was > 1000 nM and the viability, T/C [1] was 97.8%. The viability, T/C [2] was 86.6%, the viability, T/C [3] was 108% and the viability, T/C [4] was 128%. For the same compound, the viability, T/C (second compound 0.03 µM, first compound 0.316 µM) was 133%, the viability, T/C (second compound 0.03 µM, first compound 1 µM) was 133% and the viability, T/C [5] was 104%. For the same compound, the viability, T/C [6] was 96.2%, the viability, T/C [7] was 115% and the viability, T/C [8] was 117%. The viability, T/C (second compound 0.0949 µM, first compound 0.316 µM) was 144%, the viability, T/C (second compound 0.0949 µM, first compound 1 µM) was 144% and the viability, T/C [9] was 109%. It also gave a viability, T/C [10] of 115%, a viability, T/C [11] of 109% and a viability, T/C [12] of 111%. It also gave a viability, T/C (second compound 0.3 µM, first compound 0.316 µM) of 129%, a viability, T/C (second compound 0.3 µM, first compound 1 µM) of 126% and a viability, T/C [13] of 114%. The viability, T/C [14] was 119%, the viability, T/C [15] was 112% and the viability, T/C [16] was 118%. For the same compound, the viability, T/C (second compound 0.949 µM, first compound 0.316 µM) was 129%, the viability, T/C (second compound 0.949 µM, first compound 1 µM) was 143% and the viability, T/C [17] was 101%. It also gave a viability, T/C [18] of 107%, a viability, T/C [19] of 115% and a viability, T/C [20] of 130%. The viability, T/C (second compound 3 µM, first compound 0.316 µM) was 146% and the viability, T/C (second compound 3 µM, first compound 1 µM) was 144%.
In the case of `NC(=O)C(=Cn1cnc(-c2cc(C(F)(F)F)cc(C(F)(F)F)c2)n1)c1cncnc1` + CCN1C(C(=O)NC23CCC(C(=O)O)(CC2)CC3)C(c2cccc(Cl)c2F)C2(C(=O)Nc3cc(Cl)ccc32)C12CCCCC2, the IC50 (second compound 0.03 µM) is reported as 34.5 nM, the IC50 (second compound 0.0949 µM) is reported as 29.2 nM and the IC50 (second compound 0.3 µM) is reported as 37.4 nM. For the same compound, the IC50 (second compound 0.949 µM) was 38.1 nM, the IC50 (second compound 3 µM) was 29.3 nM and the viability, T/C (second compound 0.03 µM, first compound 0.000949 µM) was 116%. The viability, T/C (second compound 0.03 µM, first compound 0.003 µM) was 103%, the viability, T/C (second compound 0.03 µM, first compound 0.00949 µM) was 93.8% and the viability, T/C (second compound 0.03 µM, first compound 0.03 µM) was 57.9%. The viability, T/C (second compound 0.03 µM, first compound 0.0949 µM) was 9.64%, the viability, T/C (second compound 0.03 µM, first compound 0.3 µM) was 3.28% and the viability, T/C (second compound 0.0949 µM, first compound 0.000949 µM) was 139%. It also gave a viability, T/C (second compound 0.0949 µM, first compound 0.003 µM) of 101%, a viability, T/C (second compound 0.0949 µM, first compound 0.00949 µM) of 100% and a viability, T/C (second compound 0.0949 µM, first compound 0.03 µM) of 48.6%. The viability, T/C (second compound 0.0949 µM, first compound 0.0949 µM) was 10.1%, the viability, T/C (second compound 0.0949 µM, first compound 0.3 µM) was 3.82% and the viability, T/C (second compound 0.3 µM, first compound 0.000949 µM) was 121%. It also gave a viability, T/C (second compound 0.3 µM, first compound 0.003 µM) of 118%, a viability, T/C (second compound 0.3 µM, first compound 0.00949 µM) of 108% and a viability, T/C (second compound 0.3 µM, first compound 0.03 µM) of 60.3%. The viability, T/C (second compound 0.3 µM, first compound 0.0949 µM) was 8.36%, the viability, T/C (second compound 0.3 µM, first compound 0.3 µM) was 2.76% and the viability, T/C (second compound 0.949 µM, first compound 0.000949 µM) was 126%. It also gave a viability, T/C (second compound 0.949 µM, first compound 0.003 µM) of 115%, a viability, T/C (second compound 0.949 µM, first compound 0.00949 µM) of 114% and a viability, T/C (second compound 0.949 µM, first compound 0.03 µM) of 61%. The viability, T/C (second compound 0.949 µM, first compound 0.0949 µM) was 8.13%, the viability, T/C (second compound 0.949 µM, first compound 0.3 µM) was 0.97% and the viability, T/C (second compound 3 µM, first compound 0.000949 µM) was 111%. It also gave a viability, T/C (second compound 3 µM, first compound 0.003 µM) of 117%, a viability, T/C (second compound 3 µM, first compound 0.00949 µM) of 105% and a viability, T/C (second compound 3 µM, first compound 0.03 µM) of 48.8%. It also gave a viability, T/C (second compound 3 µM, first compound 0.0949 µM) of 6.01% and a viability, T/C (second compound 3 µM, first compound 0.3 µM) of 1.16%.
With `NC1CCC(NC2CC2c2ccccc2)CC1` (stereo not given) + CCN1C(C(=O)NC23CCC(C(=O)O)(CC2)CC3)C(c2cccc(Cl)c2F)C2(C(=O)Nc3cc(Cl)ccc32)C12CCCCC2 the IC50 (second compound 0.03 µM) was > 100 nM, the IC50 (second compound 0.0949 µM) was > 100 nM and the IC50 (second compound 0.3 µM) was > 100 nM. The IC50 (second compound 0.949 µM) was > 100 nM, the IC50 (second compound 3 µM) was > 100 nM and the viability, T/C (second compound 0.03 µM, first compound 0.000316 µM) was 123%. It also gave a viability, T/C (second compound 0.03 µM, first compound 0.001 µM) of 120%, a viability, T/C [1] of 111% and a viability, T/C [2] of 106%. The viability, T/C [3] was 110%, the viability, T/C [4] was 106% and the viability, T/C (second compound 0.0949 µM, first compound 0.000316 µM) was 112%. For the same compound, the viability, T/C (second compound 0.0949 µM, first compound 0.001 µM) was 94.4%, the viability, T/C [5] was 109% and the viability, T/C [6] was 118%. It also gave a viability, T/C [7] of 113%, a viability, T/C [8] of 103% and a viability, T/C (second compound 0.3 µM, first compound 0.000316 µM) of 112%. It also gave a viability, T/C (second compound 0.3 µM, first compound 0.001 µM) of 120%, a viability, T/C [9] of 127% and a viability, T/C [10] of 107%. The viability, T/C [11] was 125%, the viability, T/C [12] was 116% and the viability, T/C (second compound 0.949 µM, first compound 0.000316 µM) was 107%. For the same compound, the viability, T/C (second compound 0.949 µM, first compound 0.001 µM) was 114%, the viability, T/C [13] was 110% and the viability, T/C [14] was 121%. The viability, T/C [15] was 106%, the viability, T/C [16] was 115% and the viability, T/C (second compound 3 µM, first compound 0.000316 µM) was 102%. For the same compound, the viability, T/C (second compound 3 µM, first compound 0.001 µM) was 118%, the viability, T/C [17] was 110% and the viability, T/C [18] was 109%. For the same compound, the viability, T/C [19] was 110% and the viability, T/C [20] was 107%.
